The text below walks through data of US8937167B2 (Washington University, priority 2009, dated 2015).

pEC50, pIC50: −log10 of the molar value. Read-outs that look alike come from different tables or passages of the source.

In one test the test system is UTI89 biofilm. The test is described as follows: UTI89 type 1 dependent biofilm formation (inhibition/prevention) assay on PVC, crystal violet. It counts as cell-based, uropathogenic E. coli UTI89. The settings on record: Escherichia coli. Here is the method:
In yet other embodiments, activity of the compound may be measured using the ability of the compound to prevent or disrupt biofilm formation.
UTI89 biofilm was grown in LB+/− mannoside for 24 h at 22° C. in PVC plates and quantitated using crystal violet. UTI89 biofilm for confocal microscopy was grown in LB for 24 h at 22° C. on PVC coverslips. Mannoside was then added and biofilm was grown for an additional 16 h. Coverslips were then washed in PBS, fixed in 2% paraformaldehyde and stained with SYTO9 prior to confocal microscopy. For all animal experiments UTI89 or PBC-1 was grown 2×24 h statically in LB at 37° C. and inoculated at a dose of 1×10^7 bacteria in 50 μl. All mice used were female C3H/HeN (Jackson). For the pretreatment studies, bacteria were incubated with mannoside for 20 min prior to inoculation into the mouse. […] For CFU counts, bladders were harvested at 6 hpi and placed in 1 mL PBS. Bladders were then homogenized, diluted and plated on LB. After growth at 37° C. overnight, bacterial counts were determined. LacZ staining and gentamicin protection assays were performed at 6 hpi. […] Water was changed daily with fresh antibiotics. Standard growth curve assays and hemagglutination assays were performed with TMP-SMZ. All statistical analysis performed was a two-tailed Mann-Whitney U test.
Biofilm assay. UTI89 was grown in LB broth in wells of PVC microtiter plates at 23° C. in the presence of individual mannosides at varying concentrations. After 48 h of growth, wells were rinsed with water and stained with crystal violet for quantification as described. For biofilm disruption activity in PVC plates, UTI89 was grown in LB broth in wells of PVC microtiter plates at 23° C. After 24 h of growth, mannoside was added and biofilms were grown for an additional 16 h. Wells were then rinsed, stained with crystal violet and quantified. For biofilm disruption activity on PVC coverslips, UTI89 was grown in LB broth in 50 mL conicals containing PBC coverslips at 23° C. After 24 h of growth, 0.3 μM ZFH-2056 was added and biofilm was grown for an additional 16 h.
UTI89 biofilm was grown in LB+/− mannoside for 24 h at 22° C. in PVC plates and quantified using crystal violet. UTI89 biofilm for confocal microscopy was grown in LB for 24 h at 22° C. on PVC coverslips followed by mannoside treatment for 16 h. For all animal experiments UTI89 or PBC-1 was grown 2×24 h statically in LB at 37° C. and inoculated at a dose of 1×10^7 bacteria in 50 μl. All mice used were female C3H/HeN (Harlan). For the chronic UTI model, mice were infected for 2 weeks prior to treatment with mannoside. […] For oral dosing, 100 μl of 10 mg/ml (50 mg/kg) or 20 mg/ml (100 mg/kg) mannoside in 8% DMSO was inoculated with a gavage needle 30 min prior to inoculation of bacteria. […] For CFU counts, bladders were harvested at 6 hpi and placed in 1 mL PBS. Bladders were then homogenized, diluted and plated on LB. After growth at 37° C. overnight, bacterial counts were determined. LacZ staining and gentamicin protection assays were performed at 6 hpi. […] Water was changed daily with fresh antibiotics. Standard growth curve and hemagglutination assays were performed. All statistical analysis performed was a two-tailed Mann-Whitney U test. […] Compounds 7-10 were prepared using slightly modified procedures. All compounds are >95% pure as determined by HPLC/MS and ^1H NMR.
UTI89 was grown in LB broth in wells of PVC microtiter plates at 23° C. in the presence of individual mannosides at varying concentrations. After 48 h of growth, wells were rinsed with water and stained with crystal violet for quantification as described. For biofilm disruption activity in PVC plates, UTI89 was grown in LB broth in wells of PVC microtiter plates at 23° C. After 24 h of growth, mannoside was added and biofilms were grown for an additional 16 h. Wells were then rinsed, stained with crystal violet and quantified. […]

In test [1] the target is FimH (Escherichia coli, UniProt P08191). Briefly: biochemical. The test is classed as binding, E. coli. To be noted: for EC50: FimH EC50 (μM)-June 30, June 30 determination.
Text: In order to more accurately determine the relative contributions of both binding affinity to FimH versus other compound properties to the potency seen in the cellular HA titer assay, a high-throughput fluorescence polarization (FP) (or anisotropy) competitive binding assay was developed using a fluorescent-labeled mannoside ligand shown in Scheme 4.
A fluorescent polarization assay was developed and miniaturized to monitor the direct binding of a synthesized fluorescently labeled butyl mannose derivative to the FimH receptor as well as competitive displacement by other synthetic mannosides. This fluorescent polarization assay provides a rapid method for monitoring improvements to receptor affinity during the synthetic process, as well as providing Kd binding affinity measurements.
Test [2] concerns the target FimH (Escherichia coli, UniProt Q1R2J4). The settings on record: for HAI Titer EC>50: Table 21.
[3] abbreviates: read-out: Biofilm IC50 [calculated].
Setting [4] is: Table 13, competition with FAM mannoside 20, read-out: FP Binding EC50.
The mark [5] stands for this setting: read-out: Biofilm IC50 (approximated).
[6] abbreviates: read-out: Biofilm Prevention IC50.
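Throughout, for HAI Titer EC>50: hemagglutination inhibition of guinea pig erythrocytes agglutinated by type 1 piliated uropathogenic E. coli via FimH mannose binding, quantified through serial dilutions of compound.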
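Throughout, for HAI Titer EC>90: hemagglutination inhibition of guinea pig erythrocytes agglutinated by type 1 piliated uropathogenic E. coli via FimH mannose binding, quantified through serial dilutions of compound.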

For orientation: pIC50 means the negative decadic logarithm of the IC50, by convention in mol/L. On to `Cc1cc(=O)oc2cc(OC3OC(CO)C(O)C(O)C3O)ccc12` [4-methylumbellferyl-α-D-mannoside, reference compound], for which, in the test on UTI89 biofilm (setting [3]), the pIC50 is 5.77.

Turning to `CCCCO[C@H]1O[C@H](CO)[C@@H](O)[C@H](O)[C@@H]1O` [Butylman], the pEC50 on FimH [1] (setting [4]) was 6.61.

One may read the EC50 as the concentration giving half of the maximal effect. A low value points to a more potent agent. With `OCC1OC(OCc2ccccc2)C(O)C(O)C1O` (stereo not drawn) [Compound 1ZFH60, 2-benzyloxy-6-(hydroxymethyl)tetrahydropyran-3,4,5-triol], at FimH [2], the “HAI Titer EC>90” value stood at 60.000 µM. For the same compound, the pEC50 on FimH [1] (FimH EC50) was 6.88. At FimH [1], this compound came in with an EC50 of 0.242 µM.

`CC(=O)Nc1ccc(OC2OC(CO)C(O)C(O)C2O)cc1` (stereo not drawn) [Compound 1ZFH75, N-[4-[3,4,5-trihydroxy-6-(hydroxymethyl)tetrahydropyran-2-yl]oxyphenyl]acetamide]: the “HAI Titer EC>90” value at FimH [2] stood at 8.000 µM. Further, the pEC50 on FimH [1] (FimH EC50) is 6.97. The compound further gave an EC50 at FimH [1] of 0.135 µM. Besides, the pIC50 with UTI89 biofilm (setting [5]) was around 4.00; with UTI89 biofilm (setting [3]), around 4.23.

As for `CCCCOC1OC(CO)C(O)C(O)C1O` (stereo not drawn) [Compound 1ZFH84], the “HAI Titer EC>50” value at FimH [2] (ZFH/JWJ codes) stood at 125.000 µM. In the test with UTI89 biofilm (setting [6]), the pIC50 was around 3.30.

For the compound `CC(=O)Nc1cccc(OC2OC(CO)C(O)C(O)C2O)c1` (stereo not drawn) [Compound 1ZFH100], the “HAI Titer EC>90” value on FimH [2] is 12.000 µM. On FimH [1] (FimH EC50), this compound showed a pEC50 of 6.98. This compound displayed an EC50 at FimH [1] of 0.216 µM.

`N#Cc1cccc(OC2OC(CO)C(O)C(O)C2O)c1` (stereo not drawn) [Compound 1ZFH102, 3-[3,4,5-trihydroxy-6-(hydroxymethyl)tetrahydropyran-2-yl]oxybenzonitrile]: at FimH [2], the “HAI Titer EC>90” value is 23.000 µM. In addition, the pEC50 at FimH [1] (FimH EC50) is 6.94. At FimH [1], this compound showed an EC50 of 0.209 µM. For the same compound, the pIC50 in the test on UTI89 biofilm (setting [5]) was 4.00 to 5.00; with UTI89 biofilm (setting [3]), around 4.34.

In the case of `COC(=O)Cc1ccc(OC2OC(CO)C(O)C(O)C2O)cc1` (stereo not drawn) [Compound 1ZFH171, methyl 2-[4-[3,4,5-trihydroxy-6-(hydroxymethyl)tetrahydropyran-2-yl]oxyphenyl]acetate], the “HAI Titer EC>90” value on FimH [2] is 30.000 µM. In the test with UTI89 biofilm (setting [5]), the pIC50 was around 4.00.

For `COC(=O)c1cc(OC2OC(CO)C(O)C(O)C2O)cc(C(=O)OC)c1` (stereo not drawn) [Compound 1ZFH177, dimethyl 5-[3,4,5-trihydroxy-6-(hydroxymethyl)tetrahydropyran-2-yl]oxybenzene-1,3-dicarboxylate], the “HAI Titer EC>90” value at FimH [2] was determined as 2.000 µM. Besides, on FimH [1] (FimH EC50), the pEC50 is 7.08. The compound also came in with an EC50 on FimH [1] of 0.0993 µM. For the same compound, the pIC50 in the test on UTI89 biofilm (setting [3]) was 5.72.

With `CCc1ccc(OC2OC(CO)C(O)C(O)C2O)cc1` (stereo not drawn) [Compound 1ZFH178, 2-(4-ethylphenoxy)-6-(hydroxymethyl)tetrahydropyran-3,4,5-triol], the “HAI Titer EC>90” value on FimH [2] was found to be 23.000 µM. Besides, the pIC50 in the test on UTI89 biofilm (setting [5]) was 4.00 to 5.00; with UTI89 biofilm (setting [3]), around 4.05.

`CCCc1ccc(OC2OC(CO)C(O)C(O)C2O)cc1` (stereo not drawn) [Compound 1ZFH179, 2-(hydroxymethyl)-6-(4-propylphenoxy)tetrahydropyran-3,4,5-triol]: the “HAI Titer EC>90” value at FimH [2] was 15.000 µM. The pIC50 with UTI89 biofilm (setting [5]) is 4.00 to 5.00; in the test with UTI89 biofilm (setting [3]), around 4.26.

`O=C1Cc2cc(OC3OC(CO)C(O)C(O)C3O)ccc2O1` (stereo not drawn) [Compound 1ZFH231, 5-[3,4,5-trihydroxy-6-(hydroxymethyl)tetrahydropyran-2-yl]oxy-3H-benzofuran-2-one]: the “HAI Titer EC>90” value on FimH [2] was found to be 8.000 µM. For the same compound, the pIC50 with UTI89 biofilm (setting [5]) was around 4.60.

`COC(=O)c1cccc(-c2ccc(OC3OC(CO)C(O)C(O)C3O)cc2)c1` (stereo not drawn) [Compound 1ZFH253, methyl 3-[4-[3,4,5-trihydroxy-6-(hydroxymethyl)tetrahydropyran-2-yl]oxyphenyl]benzoate]: at FimH [2], the “HAI Titer EC>90” value is 1.000 µM. At FimH [1] (FimH EC50), this compound gave a pEC50 of 7.29. At FimH [1], this compound showed an EC50 of 0.0527 µM. Moreover, in the test with UTI89 biofilm (setting [3]), the pIC50 was 6.30.

Turning to `O=C1NC2C=CC(OC3OC(CO)C(O)C(O)C3O)=CC2O1` (stereo not drawn) [Compound 1ZFH256, 6-[3,4,5-trihydroxy-6-(hydroxymethyl)tetrahydropyran-2-yl]oxy-3a,7a-dihydro-3H-1,3-benzoxazol-2-one], the “HAI Titer EC>90” value on FimH [2] came to 4.000 µM. For the same compound, the pIC50 in the test on UTI89 biofilm (setting [5]) is 4.60 to 5.00; in the test on UTI89 biofilm (setting [3]) it was around 4.82.

Take `COC(=O)c1cc(C(=O)OC)cc(-c2ccc(OC3OC(CO)C(O)C(O)C3O)cc2)c1` (stereo not drawn) [Compound 1ZFH296, dimethyl 5-[4-[3,4,5-trihydroxy-6-(hydroxymethyl)tetrahydropyran-2-yl]oxyphenyl]benzene-1,3-dicarboxylate]: on FimH [2], the “HAI Titer EC>90” value is recorded as 0.15 N.V. μM. This compound gave a pEC50 on FimH [1] (FimH EC50) of 7.40. The compound further registered an EC50 at FimH [1] of 0.114 µM. For the same compound, in the test with UTI89 biofilm (setting [3]), the pIC50 is 6.52.

Regarding `COC(=O)c1sc(-c2ccc(OC3OC(CO)C(O)C(O)C3O)cc2)cc1NC(N)=O` (stereo not drawn) [Compound 4ZFH52], the “HAI Titer EC>50” value on FimH [2] (ZFH/JWJ codes) was 0.016 µM. The pIC50 in the test on UTI89 biofilm (setting [6]) was 6.74.

`CNC(=O)c1cccc(-c2ccc(OC3O[C@@H](CO)[C@@H](O)[C@H](O)[C@H]3O)c(Cl)c2)c1` (stereo partly drawn) [Compound 4ZFH170, 3-[3-chloro-4-[(3R,4S,5S,6S)-3,4,5-trihydroxy-6-(hydroxymethyl)tetrahydropyran-2-yl]oxy-phenyl]-N-methyl-benzamide]: the “HAI Titer EC>90” value at FimH [2] amounted to 0.125 µM; at FimH [2] (Table 22, ZFH/JWJ codes), 0.125 µM. For the same compound, the “HAI Titer EC>50” value at FimH [2] (ZFH/JWJ codes) was 0.125 µM. Besides, in the test on UTI89 biofilm (setting [6]), the pIC50 is 6.28.

In the case of `COC(=O)c1cccc(-c2ccc(OC3O[C@@H](CO)[C@@H](O)[C@H](O)[C@H]3O)c(C)c2)c1` (stereo partly drawn) [Compound 4ZFH224, methyl 3-[3-methyl-4-[(3R,4S,5S,6S)-3,4,5-trihydroxy-6-(hydroxymethyl)tetrahydropyran-2-yl]oxy-phenyl]benzoate], the “HAI Titer EC>90” value on FimH [2] was 0.125 µM; at FimH [2] (Table 22, ZFH/JWJ codes) it was 0.125 µM. Besides, the “HAI Titer EC>50” value at FimH [2] (ZFH/JWJ codes) is 0.125 µM. In addition, the pIC50 in the test with UTI89 biofilm (setting [6]) is 6.48.

`COC(=O)c1cccc(-c2ccc(OC3O[C@@H](CO)[C@@H](O)[C@H](O)[C@H]3O)c(OC)c2)c1` (stereo partly drawn) [Compound 4ZFH228, methyl 3-[3-methoxy-4-[(3R,4S,5S,6S)-3,4,5-trihydroxy-6-(hydroxymethyl)tetrahydropyran-2-yl]oxy-phenyl]benzoate]: the “HAI Titer EC>90” value at FimH [2] was 0.188 µM; at FimH [2] (Table 22, ZFH/JWJ codes), 0.188 µM. Moreover, the “HAI Titer EC>50” value at FimH [2] (ZFH/JWJ codes) is 0.188 µM. The pIC50 with UTI89 biofilm (setting [6]) was 6.05.

On to `COC(=O)c1cccc(-c2ccc(O[C@H]3O[C@H](CO)[C@@H](O)[C@H](O)[C@@H]3O)c(OC)c2)c1` [Compound 4e, Methyl 3-[3-methoxy-4-[(2R,3S,4S,5S,6R)-3,4,5-trihydroxy-6-(hydroxymethyl)tetrahydropyran-2-yl]oxy-phenyl]benzoate], for which the “HAI Titer EC>90” value at FimH [2] (Table 17, Examples 30-36 numbering) amounted to 0.19 µM. The pIC50 with UTI89 biofilm (setting [6]) was 6.05.

For the compound `CCCCCCCO[C@H]1O[C@H](CO)[C@@H](O)[C@H](O)[C@@H]1O` [Heptylman], the pEC50 is 4.82 at FimH [2] (read-out: HA 50% titer, Table 13, Example 6 numbering) and 7.05 at FimH [1] (setting [4]).
